Experimental data: ChEMBL document CHEMBL4507281, “Data for DCP probe BI-4394” (2021)

What was measured:
[1] = tested on: Tyrosine-protein kinase ABL1 (Homo sapiens), P00519 [T315I]; conditions: Compound concentration 100.0 nM
[2] = tested on: Tyrosine-protein kinase ABL1 (Homo sapiens), P00519 [Y253F]; conditions: Compound concentration 100.0 nM
[3] = tested on: ALK tyrosine kinase receptor (Homo sapiens), Q9UM73 [C1156Y]; conditions: Compound concentration 100.0 nM
[4] = target: Ankyrin repeat and protein kinase domain-containing protein 1 (Homo sapiens) (UniProt Q8NFD2); conditions: Compound concentration 100.0 nM
[5] = target: Cyclin-dependent kinase 11A (Homo sapiens) (UniProt Q9UQ88); conditions: Compound concentration 100.0 nM
[6] = target: Macrophage colony-stimulating factor 1 receptor (Homo sapiens) (UniProt P07333); conditions: Compound concentration 100.0 nM
[7] = target: Serine/threonine-protein kinase MRCK gamma (Homo sapiens) (UniProt Q6DT37); conditions: Compound concentration 100.0 nM
[8] = tested on: Epidermal growth factor receptor (Homo sapiens), P00533 [UNDEFINED MUTATION]; conditions: Compound concentration 100.0 nM
Chain of Epidermal growth factor receptor (Homo sapiens), P00533 [UNDEFINED MUTATION] (P00533 whole entry, looked up, change not shown): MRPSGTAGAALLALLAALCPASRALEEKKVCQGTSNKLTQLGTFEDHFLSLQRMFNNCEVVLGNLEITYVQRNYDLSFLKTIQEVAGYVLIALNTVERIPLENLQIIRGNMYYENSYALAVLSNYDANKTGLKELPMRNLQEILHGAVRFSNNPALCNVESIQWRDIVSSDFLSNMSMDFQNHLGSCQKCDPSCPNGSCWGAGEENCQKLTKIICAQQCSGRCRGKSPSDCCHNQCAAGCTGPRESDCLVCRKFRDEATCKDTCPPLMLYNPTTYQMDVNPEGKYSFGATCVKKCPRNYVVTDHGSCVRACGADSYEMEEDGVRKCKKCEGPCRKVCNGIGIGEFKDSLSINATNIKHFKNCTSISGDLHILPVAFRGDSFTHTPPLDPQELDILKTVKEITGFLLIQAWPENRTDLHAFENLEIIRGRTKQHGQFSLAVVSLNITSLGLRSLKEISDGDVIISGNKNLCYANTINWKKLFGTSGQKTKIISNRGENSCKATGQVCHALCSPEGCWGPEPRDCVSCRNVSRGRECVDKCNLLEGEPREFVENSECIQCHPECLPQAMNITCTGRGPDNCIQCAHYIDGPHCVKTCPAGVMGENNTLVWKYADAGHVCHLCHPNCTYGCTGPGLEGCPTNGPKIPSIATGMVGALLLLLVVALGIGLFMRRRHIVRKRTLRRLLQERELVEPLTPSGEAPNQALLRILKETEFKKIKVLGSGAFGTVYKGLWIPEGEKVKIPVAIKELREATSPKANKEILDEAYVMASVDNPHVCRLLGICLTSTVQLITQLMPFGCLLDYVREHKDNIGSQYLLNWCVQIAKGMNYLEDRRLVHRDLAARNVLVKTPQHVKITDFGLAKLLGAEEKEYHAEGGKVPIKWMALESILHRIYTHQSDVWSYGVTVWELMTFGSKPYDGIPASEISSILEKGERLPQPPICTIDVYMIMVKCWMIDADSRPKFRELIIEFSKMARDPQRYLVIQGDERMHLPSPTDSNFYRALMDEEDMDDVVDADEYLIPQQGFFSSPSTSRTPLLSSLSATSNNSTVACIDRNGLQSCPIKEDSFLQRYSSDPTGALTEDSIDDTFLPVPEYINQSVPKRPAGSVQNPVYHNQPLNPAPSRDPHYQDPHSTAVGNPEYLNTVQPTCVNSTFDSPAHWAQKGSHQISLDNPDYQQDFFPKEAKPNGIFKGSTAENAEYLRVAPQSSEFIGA

[9] = target: Ephrin type-A receptor 3 (Homo sapiens) (UniProt P29320); conditions: Compound concentration 100.0 nM
[10] = tested on: Receptor-type tyrosine-protein kinase FLT3 (Homo sapiens), P36888 [UNDEFINED MUTATION]; conditions: Compound concentration 100.0 nM
[11] = tested on: Receptor-type tyrosine-protein kinase FLT3 (Homo sapiens), P36888 [N841I]; conditions: Compound concentration 100.0 nM
[12] = target: Mitogen-activated protein kinase kinase kinase kinase 1 (Homo sapiens) (UniProt Q92918); conditions: Compound concentration 100.0 nM
[13] = target: Insulin receptor-related protein (Homo sapiens) (UniProt P14616); conditions: Compound concentration 100.0 nM
[14] = target: Mitogen-activated protein kinase 8 (Homo sapiens) (UniProt P45983); conditions: Compound concentration 100.0 nM
Chain of Mitogen-activated protein kinase 8 (Homo sapiens) (P45983 whole entry): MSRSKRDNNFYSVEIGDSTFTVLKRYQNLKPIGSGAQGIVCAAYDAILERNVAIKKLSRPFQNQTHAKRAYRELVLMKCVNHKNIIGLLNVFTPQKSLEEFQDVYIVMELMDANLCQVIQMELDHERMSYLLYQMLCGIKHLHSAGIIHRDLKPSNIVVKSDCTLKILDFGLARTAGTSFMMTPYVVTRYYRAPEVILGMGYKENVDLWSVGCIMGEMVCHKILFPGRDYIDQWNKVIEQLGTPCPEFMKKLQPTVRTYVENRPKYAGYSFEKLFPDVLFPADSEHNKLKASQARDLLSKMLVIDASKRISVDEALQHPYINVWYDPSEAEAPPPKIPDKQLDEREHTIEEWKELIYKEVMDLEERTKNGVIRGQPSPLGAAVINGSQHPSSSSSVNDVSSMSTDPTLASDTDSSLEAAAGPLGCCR

[15] = target: Serine/threonine-protein kinase MARK1 (Homo sapiens) (UniProt Q9P0L2); conditions: Compound concentration 100.0 nM
[16] = target: Microtubule-associated serine/threonine-protein kinase 1 (Homo sapiens) (UniProt Q9Y2H9); conditions: Compound concentration 100.0 nM
[17] = target: MAP kinase-interacting serine/threonine-protein kinase 1 (Homo sapiens) (UniProt Q9BUB5); conditions: Compound concentration 100.0 nM
[18] = target: Serine/threonine-protein kinase MRCK alpha (Homo sapiens) (UniProt Q5VT25); conditions: Compound concentration 100.0 nM
Chain of Serine/threonine-protein kinase MRCK alpha (Homo sapiens) (Q5VT25 whole entry): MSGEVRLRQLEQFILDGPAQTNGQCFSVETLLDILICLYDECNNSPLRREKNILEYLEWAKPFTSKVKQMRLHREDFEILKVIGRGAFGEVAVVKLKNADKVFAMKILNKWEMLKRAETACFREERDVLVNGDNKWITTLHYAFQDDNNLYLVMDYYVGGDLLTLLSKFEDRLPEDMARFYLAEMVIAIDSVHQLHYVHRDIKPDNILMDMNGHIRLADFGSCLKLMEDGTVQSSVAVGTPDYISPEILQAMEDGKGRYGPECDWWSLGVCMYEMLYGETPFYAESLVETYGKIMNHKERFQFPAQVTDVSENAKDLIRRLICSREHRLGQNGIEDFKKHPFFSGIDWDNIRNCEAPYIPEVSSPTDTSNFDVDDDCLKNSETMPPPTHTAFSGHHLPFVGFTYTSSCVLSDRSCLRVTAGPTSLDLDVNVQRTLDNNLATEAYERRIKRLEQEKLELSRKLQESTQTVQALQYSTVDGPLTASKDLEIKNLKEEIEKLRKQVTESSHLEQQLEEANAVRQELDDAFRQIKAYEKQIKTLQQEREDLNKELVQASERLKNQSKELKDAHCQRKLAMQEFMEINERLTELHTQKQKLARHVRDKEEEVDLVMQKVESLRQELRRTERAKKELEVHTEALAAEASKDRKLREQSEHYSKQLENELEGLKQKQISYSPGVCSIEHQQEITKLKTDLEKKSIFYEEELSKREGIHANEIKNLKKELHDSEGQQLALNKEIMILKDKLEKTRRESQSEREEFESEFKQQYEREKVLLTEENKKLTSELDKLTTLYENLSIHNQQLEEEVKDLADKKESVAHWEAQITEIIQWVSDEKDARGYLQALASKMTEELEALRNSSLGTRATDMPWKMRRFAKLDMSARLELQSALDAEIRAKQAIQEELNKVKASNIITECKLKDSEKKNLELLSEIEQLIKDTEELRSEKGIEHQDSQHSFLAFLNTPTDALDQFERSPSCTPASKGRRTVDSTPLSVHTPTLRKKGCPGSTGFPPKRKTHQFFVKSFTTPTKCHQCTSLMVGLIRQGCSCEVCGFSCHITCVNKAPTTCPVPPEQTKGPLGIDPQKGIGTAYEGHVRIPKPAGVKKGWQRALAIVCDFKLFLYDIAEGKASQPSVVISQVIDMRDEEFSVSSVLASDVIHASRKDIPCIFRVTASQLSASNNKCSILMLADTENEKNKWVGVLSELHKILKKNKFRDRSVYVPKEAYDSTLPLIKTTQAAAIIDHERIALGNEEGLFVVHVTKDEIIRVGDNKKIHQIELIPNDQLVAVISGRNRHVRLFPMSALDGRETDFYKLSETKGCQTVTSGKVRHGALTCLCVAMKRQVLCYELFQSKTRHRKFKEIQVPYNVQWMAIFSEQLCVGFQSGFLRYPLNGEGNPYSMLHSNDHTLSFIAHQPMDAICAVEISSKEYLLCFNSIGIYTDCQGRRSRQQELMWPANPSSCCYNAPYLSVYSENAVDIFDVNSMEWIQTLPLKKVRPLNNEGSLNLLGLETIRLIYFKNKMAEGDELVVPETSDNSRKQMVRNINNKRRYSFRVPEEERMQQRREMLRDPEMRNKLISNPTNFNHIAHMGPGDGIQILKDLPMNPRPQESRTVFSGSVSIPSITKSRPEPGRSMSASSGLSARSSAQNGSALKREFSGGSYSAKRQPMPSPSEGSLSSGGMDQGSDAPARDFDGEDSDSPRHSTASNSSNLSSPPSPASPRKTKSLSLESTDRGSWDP

[19] = target: Myosin light chain kinase family member 4 (Homo sapiens) (UniProt Q86YV6); conditions: Compound concentration 100.0 nM
[20] = target: Serine/threonine-protein kinase Nek10 (Homo sapiens) (UniProt Q6ZWH5); conditions: Compound concentration 100.0 nM
[21] = tested on: Phosphatidylinositol 4,5-bisphosphate 3-kinase catalytic subunit alpha isoform (Homo sapiens), P42336 [I800L]; conditions: Compound concentration 100.0 nM
[22] = target: Phosphatidylinositol 4,5-bisphosphate 3-kinase catalytic subunit beta isoform (Homo sapiens) (UniProt P42338); conditions: Compound concentration 100.0 nM
Chain of Phosphatidylinositol 4,5-bisphosphate 3-kinase catalytic subunit beta isoform (Homo sapiens) (P42338 whole entry, looked up, canonical isoform): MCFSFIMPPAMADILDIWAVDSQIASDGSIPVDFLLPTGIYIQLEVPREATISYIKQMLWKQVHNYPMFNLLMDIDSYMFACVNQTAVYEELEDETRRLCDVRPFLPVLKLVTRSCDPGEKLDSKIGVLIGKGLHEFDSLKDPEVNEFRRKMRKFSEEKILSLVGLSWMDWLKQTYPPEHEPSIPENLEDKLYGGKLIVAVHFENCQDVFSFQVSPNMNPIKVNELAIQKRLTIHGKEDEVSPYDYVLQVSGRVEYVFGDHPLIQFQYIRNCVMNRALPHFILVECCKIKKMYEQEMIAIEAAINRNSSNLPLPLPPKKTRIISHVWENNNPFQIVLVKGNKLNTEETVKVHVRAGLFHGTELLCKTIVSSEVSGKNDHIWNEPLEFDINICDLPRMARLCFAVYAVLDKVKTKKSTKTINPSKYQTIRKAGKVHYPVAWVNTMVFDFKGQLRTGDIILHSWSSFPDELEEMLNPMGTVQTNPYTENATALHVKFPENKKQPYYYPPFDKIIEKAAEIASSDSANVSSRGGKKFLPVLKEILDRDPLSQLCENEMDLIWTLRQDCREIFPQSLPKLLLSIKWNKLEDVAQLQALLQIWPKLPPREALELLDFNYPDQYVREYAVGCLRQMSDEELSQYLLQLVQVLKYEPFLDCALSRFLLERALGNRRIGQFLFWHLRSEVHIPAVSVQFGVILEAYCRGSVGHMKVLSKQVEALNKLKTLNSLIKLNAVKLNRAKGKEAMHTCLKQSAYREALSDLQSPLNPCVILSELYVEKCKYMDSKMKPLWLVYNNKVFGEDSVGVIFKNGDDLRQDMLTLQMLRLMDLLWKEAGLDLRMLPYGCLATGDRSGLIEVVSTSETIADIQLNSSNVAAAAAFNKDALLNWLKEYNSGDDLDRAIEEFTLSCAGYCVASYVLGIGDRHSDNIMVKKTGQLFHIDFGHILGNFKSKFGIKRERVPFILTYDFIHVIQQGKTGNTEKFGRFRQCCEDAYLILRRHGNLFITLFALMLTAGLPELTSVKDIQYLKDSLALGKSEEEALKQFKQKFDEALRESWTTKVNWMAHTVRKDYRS

[23] = target: Serine/threonine-protein kinase pim-3 (Homo sapiens) (UniProt Q86V86); conditions: Compound concentration 100.0 nM
[24] = target: cGMP-dependent protein kinase 2 (Homo sapiens) (UniProt Q13237); conditions: Compound concentration 100.0 nM
[25] = target: Interferon-induced, double-stranded RNA-activated protein kinase (Homo sapiens) (UniProt P19525); conditions: Compound concentration 100.0 nM
[26] = target: Ribosomal protein S6 kinase alpha-6 (Homo sapiens) (UniProt Q9UK32); conditions: Compound concentration 100.0 nM
[27] = target: Serine/threonine-protein kinase tousled-like 2 (Homo sapiens) (UniProt Q86UE8); conditions: Compound concentration 100.0 nM
[28] = target: Non-receptor tyrosine-protein kinase TNK1 (Homo sapiens) (UniProt Q13470); conditions: Compound concentration 100.0 nM
[29] = target: Transient receptor potential cation channel subfamily M member 6 (Homo sapiens) (UniProt Q9BX84); conditions: Compound concentration 100.0 nM
[30] = target: Vascular endothelial growth factor receptor 2 (Homo sapiens) (UniProt P35968); conditions: Compound concentration 100.0 nM
[31] = target: Serine/threonine-protein kinase WNK3 (Homo sapiens) (UniProt Q9BYP7); conditions: Compound concentration 100.0 nM
[32] = target: 5-hydroxytryptamine receptor 1E (Homo sapiens) (UniProt P28566); conditions: Compound concentration 10.0 uM
[33] = target: Kappa-type opioid receptor (Homo sapiens) (UniProt P41145); conditions: Compound concentration 10.0 uM
[34] = target: Histamine H4 receptor (Homo sapiens) (UniProt Q9H3N8); conditions: Compound concentration 10.0 uM
Chain of Histamine H4 receptor (Homo sapiens) (Q9H3N8 whole entry): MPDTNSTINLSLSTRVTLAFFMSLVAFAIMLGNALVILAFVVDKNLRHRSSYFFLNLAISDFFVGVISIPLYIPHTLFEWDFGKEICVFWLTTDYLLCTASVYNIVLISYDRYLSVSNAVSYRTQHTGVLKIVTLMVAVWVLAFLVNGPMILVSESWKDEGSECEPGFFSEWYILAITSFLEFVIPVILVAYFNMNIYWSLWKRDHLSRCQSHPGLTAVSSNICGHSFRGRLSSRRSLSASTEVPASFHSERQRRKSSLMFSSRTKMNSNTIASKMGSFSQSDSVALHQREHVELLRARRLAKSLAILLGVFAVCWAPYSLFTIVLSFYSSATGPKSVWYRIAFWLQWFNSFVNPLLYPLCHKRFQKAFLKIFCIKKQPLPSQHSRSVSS

CCOC(=O)c1cc2cc(-c3cc(C(=O)NCc4ccc(C(=O)O)cc4)nn3C)ccc2[nH]1 [BI 4394]
inactive: residual activity [1] 83% | residual activity [2] 93% | residual activity [3] 82% | residual activity [4] 100% | residual activity [5] 100% | residual activity [6] 94% | residual activity [7] 93% | residual activity [8] 100% | residual activity [9] 100% | residual activity [10] 87% | residual activity [11] 81% | residual activity [12] 100% | residual activity [13] 77% | residual activity [14] 96% | residual activity [15] 76% | residual activity [16] 87% | residual activity [17] 75% | residual activity [18] 100% | residual activity [19] 100% | residual activity [20] 90% | residual activity [21] 93% | residual activity [22] 88% | residual activity [23] 99% | residual activity [24] 93% | residual activity [25] 100% | residual activity [26] 93% | residual activity [27] 93% | residual activity [28] 88% | residual activity [29] 95% | residual activity [30] 81% | residual activity [31] 96% | inhibition [32] 6.37% | inhibition [33] 27.2% | inhibition [34] -1.52%

Cn1nc(C(=O)NCc2ccc(C(=O)O)cc2)cc1-c1ccc2[nH]ccc2c1 [BI 4395]
inactive: residual activity [1] 73% | residual activity [2] 100% | residual activity [3] 65% | residual activity [4] 100% | residual activity [5] 96% | residual activity [6] 98% | residual activity [7] 100% | residual activity [8] 94% | residual activity [9] 89% | residual activity [10] 99% | residual activity [11] 100% | residual activity [12] 97% | residual activity [13] 98% | residual activity [14] 88% | residual activity [15] 100% | residual activity [16] 100% | residual activity [17] 100% | residual activity [18] 79% | residual activity [19] 76% | residual activity [20] 58% | residual activity [21] 100% | residual activity [22] 82% | residual activity [23] 91% | residual activity [24] 78% | residual activity [25] 84% | residual activity [26] 85% | residual activity [27] 89% | residual activity [28] 100% | residual activity [29] 79% | residual activity [30] 85% | residual activity [31] 67% | inhibition [32] 10.3% | inhibition [33] 16.8% | inhibition [34] -6.14%
